Measurements published in ChEMBL document CHEMBL1150049, “Isolation and characterization of an antiviral flavonoid from Waldsteinia fragarioides” (J Nat Prod, 1992).
Activity calls are given as the source filed them. The rule behind the calls is not given here.

Assays:
Vero = assay: Cytotoxicity against african green monkey Vero cells at 250 ug/ml; type: cell-based; settings: chlorocebus sabaeus
Human alphaherpesvirus 1 = assay: Antiviral activity against HSV1 infected in african green monkey Vero cells assessed as suppression of plaque formation at 40 ug/ml by plaque-reduction assay; type: functional, organism-based

O=c1c(O[C@@H]2O[C@H](CO)[C@@H](O)[C@H](O)[C@H]2O)c(-c2ccc(O)c(O)c2)oc2cc(O)cc(O)c12 [ISOQUERCETIN]
Activity (Vero): Toxic | Activity (Human alphaherpesvirus 1): Active
